This note sets out measurements from ChEMBL document CHEMBL4765228, “Indole-like Trk receptor antagonists” (Eur J Med Chem, 2016).

Test [1] has as its target Insulin-like growth factor 1 receptor (Homo sapiens) (UniProt P08069). Put plainly: Inhibition of human IGF1R assessed as residual activity at 0.1 uM relative to control.
In test [2] the target is MAP/microtubule affinity-regulating kinase 3 (Homo sapiens) (UniProt P27448). Put plainly: Inhibition of human MARK3 assessed as residual activity at 1 uM relative to control.
In test [3] the target is Proto-oncogene tyrosine-protein kinase Src (Homo sapiens) (UniProt P12931). The test can be described thus: Inhibition of human GST-HIS-tagged SRC assessed as residual activity at 0.1 uM relative to control.
Test [4] deals with Serine/threonine-protein kinase N2 (Homo sapiens) (UniProt Q16513). The test can be described thus: Inhibition of human PRK2 assessed as residual activity at 0.1 uM relative to control.
Test [5] has as its target Mitogen-activated protein kinase kinase kinase 11 (Homo sapiens) (UniProt Q16584). The test can be described thus: Inhibition of human MAP3K11 assessed as residual activity at 1 uM relative to control.
The target of test [6] is T1, Mitogen-activated protein kinase kinase kinase 7 (Homo sapiens) (UniProt O43318).
T1 sequence (whole entry): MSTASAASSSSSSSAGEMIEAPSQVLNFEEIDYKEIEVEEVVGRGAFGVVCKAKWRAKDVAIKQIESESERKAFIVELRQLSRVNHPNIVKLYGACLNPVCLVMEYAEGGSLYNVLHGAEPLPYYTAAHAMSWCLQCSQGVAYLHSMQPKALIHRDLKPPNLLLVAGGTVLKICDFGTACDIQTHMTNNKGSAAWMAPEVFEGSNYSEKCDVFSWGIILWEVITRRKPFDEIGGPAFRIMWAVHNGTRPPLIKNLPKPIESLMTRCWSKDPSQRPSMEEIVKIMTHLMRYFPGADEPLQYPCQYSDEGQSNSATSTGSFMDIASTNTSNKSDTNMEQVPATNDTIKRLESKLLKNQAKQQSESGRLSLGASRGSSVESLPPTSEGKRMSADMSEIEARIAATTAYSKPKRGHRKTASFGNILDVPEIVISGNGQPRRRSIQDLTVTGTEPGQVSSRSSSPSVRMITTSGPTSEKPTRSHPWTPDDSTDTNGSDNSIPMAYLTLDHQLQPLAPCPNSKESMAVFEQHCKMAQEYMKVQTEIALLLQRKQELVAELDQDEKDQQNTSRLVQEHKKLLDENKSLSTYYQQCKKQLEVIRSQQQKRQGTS
Put plainly: Inhibition of human MAP3K7 assessed as residual activity at 0.1 uM relative to control.

Test [7] addresses Myosin light chain kinase, smooth muscle (Homo sapiens) (UniProt Q15746). Put plainly: Inhibition of human MYLK assessed as residual activity at 0.1 uM relative to control.
Test [8] has as its target Calcium/calmodulin-dependent protein kinase kinase 2 (Homo sapiens) (UniProt Q96RR4). The test can be described thus: Inhibition of human CAMKK2 assessed as residual activity at 1 uM relative to control.
The target in test [9] is Tyrosine-protein kinase JAK2 (Homo sapiens) (UniProt O60674). The test can be described thus: Inhibition of human JAK2 assessed as residual activity at 1 uM relative to control.
In test [10] the target is Homeodomain-interacting protein kinase 2 (Homo sapiens) (UniProt Q9H2X6). Put plainly: Inhibition of human HIPK2 assessed as residual activity at 1 uM relative to control.
Test [11] addresses T2, Dual specificity protein kinase TTK (Homo sapiens) (UniProt P33981).
T2 sequence (whole entry): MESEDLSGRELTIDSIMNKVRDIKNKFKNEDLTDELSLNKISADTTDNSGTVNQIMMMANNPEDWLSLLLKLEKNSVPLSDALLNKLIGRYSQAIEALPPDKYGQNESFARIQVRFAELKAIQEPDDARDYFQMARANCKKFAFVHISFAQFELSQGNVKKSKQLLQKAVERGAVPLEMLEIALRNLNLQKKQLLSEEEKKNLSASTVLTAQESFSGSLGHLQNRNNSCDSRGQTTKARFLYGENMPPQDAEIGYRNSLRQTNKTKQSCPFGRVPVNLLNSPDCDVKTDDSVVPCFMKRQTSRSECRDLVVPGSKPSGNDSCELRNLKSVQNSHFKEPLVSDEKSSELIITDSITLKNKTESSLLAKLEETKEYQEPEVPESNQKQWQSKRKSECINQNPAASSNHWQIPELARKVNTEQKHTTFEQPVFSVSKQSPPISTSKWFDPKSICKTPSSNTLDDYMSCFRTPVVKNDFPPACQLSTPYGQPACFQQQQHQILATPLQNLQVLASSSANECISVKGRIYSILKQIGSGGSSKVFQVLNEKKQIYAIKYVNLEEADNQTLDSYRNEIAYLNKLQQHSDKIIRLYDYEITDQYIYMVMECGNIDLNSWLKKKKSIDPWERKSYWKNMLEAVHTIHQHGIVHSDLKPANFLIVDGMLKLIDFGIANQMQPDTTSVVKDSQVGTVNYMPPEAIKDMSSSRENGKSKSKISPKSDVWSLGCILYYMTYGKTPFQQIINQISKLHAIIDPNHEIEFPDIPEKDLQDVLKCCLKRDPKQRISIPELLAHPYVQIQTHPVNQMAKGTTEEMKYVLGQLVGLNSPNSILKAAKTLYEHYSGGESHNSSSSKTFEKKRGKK
The test can be described thus: Inhibition of human TTK assessed as residual activity at 1 uM relative to control.

Test [12] addresses SRSF protein kinase 1 (Homo sapiens) (UniProt Q96SB4). Put plainly: Inhibition of human SRPK1 assessed as residual activity at 1 uM relative to control.
For test [13], the species on record is Homo sapiens. Put plainly: Inhibition of human PKA assessed as residual activity at 1 uM relative to control.
Test [14] deals with Protein kinase C alpha type (Homo sapiens) (UniProt P17252). The test can be described thus: Inhibition of human PKCalpha assessed as residual activity at 0.1 uM relative to control.
The target of test [15] is Aurora kinase B (Homo sapiens) (UniProt Q96GD4). Put plainly: Inhibition of human Aurora-B assessed as residual activity at 0.1 uM relative to control.
The target of test [16] is Serine/threonine-protein kinase PAK 4 (Homo sapiens) (UniProt O96013). Put plainly: Inhibition of human PAK4 assessed as residual activity at 0.1 uM relative to control.
The target in test [17] is MAP/microtubule affinity-regulating kinase 3 (Homo sapiens) (UniProt P27448). Put plainly: Inhibition of human MARK3 assessed as residual activity at 0.1 uM relative to control.

Chain of Homeodomain-interacting protein kinase 2 (Homo sapiens) (Q9H2X6 whole entry, looked up): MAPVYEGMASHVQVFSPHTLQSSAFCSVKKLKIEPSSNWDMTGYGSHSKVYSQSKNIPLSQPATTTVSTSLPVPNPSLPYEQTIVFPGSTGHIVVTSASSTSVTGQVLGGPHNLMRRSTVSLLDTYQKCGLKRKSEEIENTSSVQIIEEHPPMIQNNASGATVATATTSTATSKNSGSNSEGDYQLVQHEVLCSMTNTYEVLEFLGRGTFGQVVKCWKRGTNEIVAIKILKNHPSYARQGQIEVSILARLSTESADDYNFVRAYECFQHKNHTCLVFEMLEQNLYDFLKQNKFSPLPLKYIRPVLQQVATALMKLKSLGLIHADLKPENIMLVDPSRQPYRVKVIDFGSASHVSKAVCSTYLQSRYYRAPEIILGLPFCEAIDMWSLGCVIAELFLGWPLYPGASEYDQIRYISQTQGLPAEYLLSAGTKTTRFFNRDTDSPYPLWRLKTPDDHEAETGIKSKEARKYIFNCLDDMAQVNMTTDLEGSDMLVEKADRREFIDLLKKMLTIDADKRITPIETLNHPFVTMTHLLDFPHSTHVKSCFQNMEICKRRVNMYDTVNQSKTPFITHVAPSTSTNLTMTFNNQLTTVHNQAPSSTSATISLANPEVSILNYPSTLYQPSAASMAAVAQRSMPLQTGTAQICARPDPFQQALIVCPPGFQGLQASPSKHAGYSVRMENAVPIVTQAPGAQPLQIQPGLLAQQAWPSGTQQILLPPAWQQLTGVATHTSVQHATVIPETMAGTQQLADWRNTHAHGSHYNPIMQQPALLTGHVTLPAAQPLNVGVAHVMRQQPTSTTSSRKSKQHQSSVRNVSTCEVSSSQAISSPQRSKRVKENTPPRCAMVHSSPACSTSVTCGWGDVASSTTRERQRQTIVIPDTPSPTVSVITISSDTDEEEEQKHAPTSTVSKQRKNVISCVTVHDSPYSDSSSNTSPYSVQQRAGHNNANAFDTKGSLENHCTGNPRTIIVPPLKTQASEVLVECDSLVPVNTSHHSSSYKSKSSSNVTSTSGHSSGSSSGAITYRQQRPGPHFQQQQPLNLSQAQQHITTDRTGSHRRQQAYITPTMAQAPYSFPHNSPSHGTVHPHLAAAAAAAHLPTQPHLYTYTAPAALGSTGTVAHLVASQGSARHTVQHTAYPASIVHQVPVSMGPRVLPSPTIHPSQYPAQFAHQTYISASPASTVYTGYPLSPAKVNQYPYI
Chain of Calcium/calmodulin-dependent protein kinase kinase 2 (Homo sapiens) (Q96RR4 2-588 limits assumed): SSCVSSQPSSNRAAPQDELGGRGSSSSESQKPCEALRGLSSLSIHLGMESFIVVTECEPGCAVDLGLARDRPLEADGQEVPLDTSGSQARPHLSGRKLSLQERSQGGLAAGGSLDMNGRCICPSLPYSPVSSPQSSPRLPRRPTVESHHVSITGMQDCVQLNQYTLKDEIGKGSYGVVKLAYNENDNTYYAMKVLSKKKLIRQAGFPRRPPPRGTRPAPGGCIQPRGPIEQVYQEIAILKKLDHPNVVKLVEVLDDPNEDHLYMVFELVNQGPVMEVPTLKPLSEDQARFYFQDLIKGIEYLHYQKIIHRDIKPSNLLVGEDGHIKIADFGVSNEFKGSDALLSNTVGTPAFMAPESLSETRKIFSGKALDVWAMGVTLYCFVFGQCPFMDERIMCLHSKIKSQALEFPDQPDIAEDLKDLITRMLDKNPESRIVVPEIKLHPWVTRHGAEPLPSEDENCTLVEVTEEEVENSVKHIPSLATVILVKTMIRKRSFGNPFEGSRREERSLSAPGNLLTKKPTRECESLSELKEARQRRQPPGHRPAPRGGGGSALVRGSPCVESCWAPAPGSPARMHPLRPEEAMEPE
Chain of Insulin-like growth factor 1 receptor (Homo sapiens) (P08069 31-736 limits assumed): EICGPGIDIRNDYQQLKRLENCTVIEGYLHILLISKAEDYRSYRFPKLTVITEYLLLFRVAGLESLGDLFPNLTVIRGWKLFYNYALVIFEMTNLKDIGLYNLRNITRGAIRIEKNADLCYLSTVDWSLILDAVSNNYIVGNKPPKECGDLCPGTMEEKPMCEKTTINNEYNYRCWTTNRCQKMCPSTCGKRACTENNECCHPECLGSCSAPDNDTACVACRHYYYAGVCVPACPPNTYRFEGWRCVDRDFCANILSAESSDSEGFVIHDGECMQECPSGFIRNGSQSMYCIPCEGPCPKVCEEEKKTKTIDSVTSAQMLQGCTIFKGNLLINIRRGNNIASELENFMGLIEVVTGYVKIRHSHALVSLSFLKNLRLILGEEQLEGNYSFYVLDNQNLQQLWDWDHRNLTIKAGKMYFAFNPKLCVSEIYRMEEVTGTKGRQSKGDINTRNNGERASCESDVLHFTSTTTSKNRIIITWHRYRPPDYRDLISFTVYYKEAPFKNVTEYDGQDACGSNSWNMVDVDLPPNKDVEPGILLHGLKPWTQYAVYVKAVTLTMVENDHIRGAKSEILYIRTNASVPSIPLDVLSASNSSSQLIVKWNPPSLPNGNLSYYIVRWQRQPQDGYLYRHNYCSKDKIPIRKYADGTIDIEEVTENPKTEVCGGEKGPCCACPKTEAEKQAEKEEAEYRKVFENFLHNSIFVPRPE
Chain of Insulin-like growth factor 1 receptor (Homo sapiens) (P08069 741-1367 limits assumed): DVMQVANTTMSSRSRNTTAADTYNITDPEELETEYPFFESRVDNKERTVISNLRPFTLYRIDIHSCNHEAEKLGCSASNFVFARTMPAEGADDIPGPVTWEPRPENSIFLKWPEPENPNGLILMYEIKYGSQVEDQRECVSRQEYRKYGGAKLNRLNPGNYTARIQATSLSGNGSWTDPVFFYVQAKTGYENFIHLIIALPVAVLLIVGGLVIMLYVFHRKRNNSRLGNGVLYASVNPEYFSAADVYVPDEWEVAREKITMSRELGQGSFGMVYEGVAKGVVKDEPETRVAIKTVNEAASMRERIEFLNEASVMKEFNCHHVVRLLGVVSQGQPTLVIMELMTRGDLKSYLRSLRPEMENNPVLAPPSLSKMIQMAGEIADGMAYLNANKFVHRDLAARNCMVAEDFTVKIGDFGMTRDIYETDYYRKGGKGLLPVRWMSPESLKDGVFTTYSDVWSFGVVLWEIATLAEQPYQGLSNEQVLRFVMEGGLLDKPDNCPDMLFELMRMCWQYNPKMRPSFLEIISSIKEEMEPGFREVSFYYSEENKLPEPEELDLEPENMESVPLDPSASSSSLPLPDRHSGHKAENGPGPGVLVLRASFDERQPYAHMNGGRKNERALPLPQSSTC
Chain of Aurora kinase B (Homo sapiens) (Q96GD4 whole entry): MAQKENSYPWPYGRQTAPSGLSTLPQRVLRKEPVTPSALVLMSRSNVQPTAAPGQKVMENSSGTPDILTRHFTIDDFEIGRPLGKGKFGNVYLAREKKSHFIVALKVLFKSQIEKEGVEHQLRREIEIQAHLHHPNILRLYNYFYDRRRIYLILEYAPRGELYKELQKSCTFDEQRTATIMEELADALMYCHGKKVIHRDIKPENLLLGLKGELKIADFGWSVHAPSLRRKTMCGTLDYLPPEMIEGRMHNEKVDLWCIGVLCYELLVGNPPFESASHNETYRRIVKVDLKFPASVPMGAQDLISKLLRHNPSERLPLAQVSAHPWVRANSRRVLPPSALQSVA
Chain of MAP/microtubule affinity-regulating kinase 3 (Homo sapiens) (P27448 whole entry, looked up): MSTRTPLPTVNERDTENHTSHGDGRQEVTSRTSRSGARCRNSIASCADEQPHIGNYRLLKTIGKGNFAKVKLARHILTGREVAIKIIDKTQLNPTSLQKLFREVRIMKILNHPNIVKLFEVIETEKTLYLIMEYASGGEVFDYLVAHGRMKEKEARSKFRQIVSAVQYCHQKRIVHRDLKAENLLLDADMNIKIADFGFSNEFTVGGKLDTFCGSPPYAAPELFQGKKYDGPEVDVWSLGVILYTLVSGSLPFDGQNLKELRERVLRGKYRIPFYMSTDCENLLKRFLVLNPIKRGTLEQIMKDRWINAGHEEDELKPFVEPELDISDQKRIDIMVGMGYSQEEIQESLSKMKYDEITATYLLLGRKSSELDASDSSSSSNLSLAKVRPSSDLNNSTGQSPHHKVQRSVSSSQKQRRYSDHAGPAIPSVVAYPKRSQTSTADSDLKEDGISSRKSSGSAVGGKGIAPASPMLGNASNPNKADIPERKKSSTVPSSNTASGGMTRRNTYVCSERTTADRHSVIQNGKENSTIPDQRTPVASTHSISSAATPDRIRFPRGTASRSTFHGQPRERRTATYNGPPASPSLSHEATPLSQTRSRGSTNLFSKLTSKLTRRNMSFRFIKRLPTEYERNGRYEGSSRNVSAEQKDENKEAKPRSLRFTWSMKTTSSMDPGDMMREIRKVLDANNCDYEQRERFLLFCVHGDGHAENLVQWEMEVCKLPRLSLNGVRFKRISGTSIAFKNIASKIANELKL
Chain of Proto-oncogene tyrosine-protein kinase Src (Homo sapiens) (P12931 2-536 limits assumed): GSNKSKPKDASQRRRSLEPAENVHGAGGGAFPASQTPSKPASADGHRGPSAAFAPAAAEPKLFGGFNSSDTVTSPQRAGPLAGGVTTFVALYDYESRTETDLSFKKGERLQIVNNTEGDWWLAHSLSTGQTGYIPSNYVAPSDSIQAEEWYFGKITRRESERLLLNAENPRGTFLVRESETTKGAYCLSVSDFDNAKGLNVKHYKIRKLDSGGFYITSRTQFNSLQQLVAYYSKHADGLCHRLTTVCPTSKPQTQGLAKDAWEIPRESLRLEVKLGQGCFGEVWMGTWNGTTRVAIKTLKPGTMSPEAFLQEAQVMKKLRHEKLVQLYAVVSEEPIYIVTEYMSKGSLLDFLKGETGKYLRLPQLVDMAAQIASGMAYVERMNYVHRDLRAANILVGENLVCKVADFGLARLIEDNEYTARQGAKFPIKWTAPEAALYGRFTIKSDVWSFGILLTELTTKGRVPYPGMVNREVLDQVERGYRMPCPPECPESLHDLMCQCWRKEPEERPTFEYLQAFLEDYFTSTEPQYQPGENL

Turning to `COc1ccc2[nH]cc(/C=C3\C(=O)Nc4ccc(S(N)(=O)=O)cc43)c2c1`, the Activity in test [1] is 98%; in [2], 93%; in test [3] it was 107%; in [4], 96%; in test [5], 25%; in test [6], 93%. In addition, the Activity in test [7] amounted to 94%; in test [8], 31%; in test [9], 67%; in test [10] it was 84%; in test [11] it was 80%; in test [12], 93%. Moreover, the Activity in [13] was found to be 84%; in test [14] it was 104%; in test [15], 95%; in [16], 93%; in [17] it was 101%.

In the case of `CNS(=O)(=O)c1ccc2c(c1)/C(=C/c1cn(C)c3ccc(OC)cc13)C(=O)N2`, the Activity in test [1] came to 96%; in test [2] it was 87%; in test [3], 92%; in test [4], 90%; in test [5], 55%; in test [6], 104%. The Activity in test [7] is 92%; in test [8], 50%; in [9] it was 87%; in [10], 102%; in test [11], 86%; in test [12], 101%. Further, the Activity in test [13] was determined as 83%; in test [14], 101%; in test [15] it was 74%; in [16], 84%; in test [17], 100%.

In the case of `COc1ccc2c(c1)c(/C=C1\C(=O)Nc3ccc(S(N)(=O)=O)cc31)cn2C`, the Activity turned out to be 105% in [1]; 90% in test [2]; 113% in [3]; 98% in test [4]; 38% in [5]; 93% in [6]. Moreover, the Activity in [7] is 94%; in test [8] it was 19%; in test [9], 86%; in test [10], 81%; in test [11], 96%; in test [12], 99%. For the same compound, the Activity in [13] came to 91%; in [14], 91%; in test [15] it was 79%; in [16], 77%; in [17], 96%.

`Cn1cc(/C=C2\C(=O)Nc3ccc(S(N)(=O)=O)cc32)c2ccccc21`: the Activity in [1] stood at 105%; in test [2] it was 88%; in test [3] it was 124%; in [4], 94%; in test [5] it was 12%; in [6], 85%. In addition, the Activity in test [7] was 97%; in test [8], 25%; in [9], 67%; in test [10], 103%; in test [11], 85%; in [12] it was 101%. Besides, the Activity in [13] turned out to be 87%; in test [14], 106%; in test [15] it was 59%; in [16] it was 74%; in [17] it was 93%.

For `CN(C)S(=O)(=O)c1ccc2c(c1)/C(=C/c1cn(C)c3ccc(O)cc13)C(=O)N2`, the Activity in [1] came out at 102%; in test [2], 96%; in [3], 79%; in [4] it was 91%; in test [5] it was 51%; in test [6], 101%. Moreover, the Activity turned out to be 91% in test [7]; 25% in [8]; 55% in test [9]; 96% in [10]; 96% in [11]; 94% in [12]. The Activity was found to be 103% in [13]; 96% in [14]; 43% in test [15]; 95% in test [16]; 103% in test [17].

For `COc1ccc2c(c1)c(/C=C1\C(=O)Nc3ccc(S(=O)(=O)N(C)C)cc31)cn2C`, the Activity turned out to be 94% in [1]; 97% in test [2]; 93% in test [3]; 108% in [4]; 37% in test [5]; 106% in test [6]. Also, the Activity in test [7] stood at 94%; in test [8], 30%; in test [9] it was 72%; in test [10], 85%; in test [11] it was 106%; in test [12], 95%. Further, the Activity in test [13] was 98%; in test [14], 93%; in test [15], 85%; in test [16] it was 96%; in test [17] it was 93%.
